These results are taken from ChEMBL document CHEMBL1158308, “Three new adjacent bis-tetrahydrofuran acetogenins with four hydroxyl groups from Asimina triloba” (J Nat Prod, 1996).

Values after ≈ are worked out from the molar mass of the structure shown. A value given as a limit tells only on which side of the number the result lay.

One data set has as its system MIA PaCa-2. Kind of data set: Cytotoxicity against human MIAPaCa2 cells after 7 days by MTT assay. Format: functional. The conditions noted are these: MIA PaCa-2, 168 h, read-out: ED50 (the source's name).
The next data set relates to A498. The data set is described as follows: Cytotoxicity against human A498 cells after 7 days by MTT assay. Particulars: A498, 168 h, read-out: ED50 (the source's name). Format: functional.
A further data set relates to MCF7. Kind of data set: Cytotoxicity against human MCF7 cells after 7 days by MTT assay. Format: functional. The conditions noted are these: for EC50: Homo sapiens, MCF7, 168 h, read-out: ED50 (the source's name).
The test system of the next data set is HT-29. The data set is described as follows: Cytotoxicity against human HT29 cells after 7 days by MTT assay. Particulars: for EC50: Homo sapiens, HT-29, 168 h, read-out: ED50 (the source's name). Format: functional.
A further data set concerns PC-3. The data set is described as follows: Cytotoxicity against human PC3 cells after 7 days by MTT assay. The data set is classed as functional. Particulars: PC-3, 168 h, read-out: ED50 (the source's name).
The subject of another data set is Artemia salina. The data set is described as follows: Toxicity to Artemia salina. The data set is classed as organism-based. The conditions noted are these: in vivo.
For another data set, the system named is A549. Kind of data set: Cytotoxicity against human A549 cells after 7 days by MTT assay. The data set is classed as functional. The conditions noted are these: for EC50: Homo sapiens, A549, 168 h, read-out: ED50 (the source's name).

As to `CCCCCCCCCC[C@@H](O)[C@H]1CC[C@H]([C@H]2CC[C@H]([C@H](O)CCCC[C@H](O)CCCCC[C@@H](O)CC3=C[C@H](C)OC3=O)O2)O1`, the EC50 with MIA PaCa-2 is > 1 µg/mL; with A498 it was > 1 µg/mL; in the data set with MCF7 it was 0.327 µg/mL (≈ 0.512 µM); in the data set on HT-29 it was 0.00758 µg/mL (≈ 0.0119 µM); in the data set with PC-3 it was 0.527 µg/mL (≈ 0.825 µM); in the data set with A549, 0.673 µg/mL (≈ 1.05 µM). This compound also showed an LC50 with Artemia salina of 4.3 ×10⁻¹ ppm.
For the compound `CCCCCCCCCC[C@@H](O)[C@H]1CC[C@@H]([C@H]2CC[C@H]([C@H](O)CCCC[C@H](O)CCCCC[C@@H](O)CC3=C[C@H](C)OC3=O)O2)O1`, the EC50 with MIA PaCa-2 was determined as 0.196 µg/mL (≈ 0.307 µM); in the data set on A498, 0.01 µg/mL (≈ 0.0157 µM); in the data set on HT-29, 1.39 µg/mL (≈ 2.18 µM); with PC-3 it was 0.378 µg/mL (≈ 0.592 µM). In addition, the ED50 in the data set with MCF7 turned out to be 1.88 ×10⁻⁸ ug/ml; with A549 it was 1 ×10⁻⁸ ug/ml. The LC50 with Artemia salina is reported as 2.6 ×10⁻¹ ppm.
`CCCCCCCCCCC(O)C1CCC(C2CCC(C(O)CCCCCCCC[C@H](O)CC3=C[C@@H](C)OC3=O)O2)O1` (stereo partly drawn) [ASIMICIN]: in the data set on MCF7, the EC50 was found to be 0.852 µg/mL (≈ 1.43 µM). The ED50 is <1 ×10⁻¹² ug/ml in the data set on HT-29 and 8.43 ×10⁻⁴ ug/ml in the data set with A549.
On to `CCCCCCCCCC[C@@H](O)[C@H]1CC[C@H]([C@H]2CC[C@H]([C@H](O)CCCCCCCCCC[C@@H](O)CC3=C[C@H](C)OC3=O)O2)O1` [ASIMICIN], for which the LC50 with Artemia salina is on record as 2.7 ×10⁻² ppm.
`CCCCCCCCCC[C@@H](O)[C@H]1CC[C@H]([C@H]2CC[C@H]([C@H](O)CCCC[C@H](O)CCCCCCCC3=C[C@H](C)OC3=O)O2)O1` [ASIMIN]: the ED50 is listed as 9.57 ×10⁻⁹ ug/ml with MCF7, <1 ×10⁻¹² ug/ml in the data set with HT-29 and 7.99 ×10⁻⁹ ug/ml in the data set with A549. The LC50 in the data set with Artemia salina came to 4.6 ×10⁻³ ppm.
For `CCCCCCCCCC[C@H](O)[C@H]1CC[C@H]([C@H]2CC[C@H]([C@H](O)CCCCCCCCCCCCC3=C[C@H](C)OC3=O)O2)O1` [BULLANIN], the ED50 with MCF7 worked out at 3.22 ×10⁻¹⁴ ug/ml; in the data set with HT-29, 4.77 ×10⁻¹⁴ ug/ml; with A549, 3.11 ×10⁻¹⁴ ug/ml. Also, the LC50 in the data set with Artemia salina turned out to be 6 ×10⁻³ ppm.
`CC[C@H](O)[C@H](O)CCCCCC[C@H](O)[C@H]1CC[C@H]([C@H]2CC[C@H]([C@H](O)CCCCCCCCCCCCC3=C[C@H](C)OC3=O)O2)O1` [BULLATETROCIN]: the EC50 in the data set on MIA PaCa-2 was > 1 µg/mL; with A498, > 1 µg/mL; in the data set with MCF7 it was 0.497 µg/mL (≈ 0.778 µM); in the data set with PC-3 it was > 1 µg/mL; in the data set on A549, 0.352 µg/mL (≈ 0.551 µM). The same compound registered an ED50 in the data set on HT-29 of 3.32 ×10⁻⁵ ug/ml. The compound further had an LC50 in the data set on Artemia salina of 3.1 ×10⁻¹ ppm.
Regarding `COc1cccc2c1C(=O)c1c(O)c3c(c(O)c1C2=O)C[C@@](O)(C(=O)CO)C[C@@H]3O[C@H]1C[C@H](N)[C@H](O)[C@H](C)O1` [DOXORUBICIN], the EC50 in the data set with MIA PaCa-2 amounted to 0.00243 µg/mL (≈ 0.00447 µM); in the data set on A498 it was 0.00178 µg/mL (≈ 0.00327 µM); in the data set on MCF7, 0.17 µg/mL (≈ 0.313 µM); in the data set with HT-29, 0.00428 µg/mL (≈ 0.00787 µM); in the data set on PC-3, 0.0189 µg/mL (≈ 0.0348 µM); in the data set on A549, 0.00178 µg/mL (≈ 0.00327 µM). The compound further had an LC50 in the data set with Artemia salina of 8 ×10⁻² ppm.
As to `CCCCCCCCCC[C@@H](O)[C@H]1CC[C@@H]([C@H]2CC[C@H]([C@H](O)CCCCCCCCCC[C@@H](O)CC3=C[C@H](C)OC3=O)O2)O1` [TRILOBACIN], the EC50 in the data set on MCF7 is 0.339 µg/mL (≈ 0.544 µM). Further, the ED50 with HT-29 was <1 ×10⁻¹² ug/ml; in the data set on A549, 8.02 ×10⁻⁴ ug/ml. Besides, the LC50 in the data set on Artemia salina worked out at 8.7 ×10⁻³ ppm.
For the compound `CCCCCCCCCC[C@@H](O)[C@H]1CC[C@@H]([C@H]2CC[C@H]([C@H](O)CCC[C@H](O)CCCCCCCC3=C[C@H](C)OC3=O)O2)O1` [TRILOBIN], the ED50 in the data set with MCF7 came to 2.95 ×10⁻¹² ug/ml; with HT-29, 2.2 ×10⁻⁸ ug/ml; in the data set on A549, 5.71 ×10⁻¹² ug/ml. The same compound showed an LC50 in the data set with Artemia salina of 9.7 ×10⁻³ ppm.
